From patent US12403200B2, “Methods and compositions for treating autoimmune diseases” (priority 2019, dated 2025)

Columns and labels:
C57BL/6 (CD45.2+) mice = test: MOG-induced EAE model with congenic transplant; assay type: in vivo, mouse
Protocol: Experimental Autoimmune Encephalomyelitis (EAE) Model: C57BL/6 (CD45.2) mice were induced with MOG35-55 peptide in complete Freund's adjuvant, followed by the administration of pertussis toxin (PTX) at 4 h post MOG35-55 and 24 h post initial dose of PTX. Disease onset was around 9-12 days post induction. Animals were scored twice a day for a duration of 80 days post EAE induction. EAE Clinical Scoring Scale: 1-limp tail; 2-partial hind limb paralysis; 3-Complete hind limb paralysis; 4-Complete hind and partial front limb paralysis; 5-moribund bound. Animals were euthanized at 2 consecutive scores of 4. Terminal analysis of tissues (peripheral blood, lymph nodes) were evaluated to determine chimerism and immune component of the relapsing EAE mice. Lymph node cells were stimulated (S) with PMS/lonomycin (50 ng/mL) and Brefeldin A (1 μg/mL) or not stimulated (NS) and evaluated for T cell chimerism (donor, host) and IL-17 production.
To induce EAE in a murine model, C57BL/6 (CD45.2+) mice were induced with MOG35_55 peptide in complete Freund's adjuvant, followed by the administration of pertussis toxin (PTX). […]

[1] = Quintieri et al. 2005; cited from earlier work

Compound | Incidence (C57BL/6 (CD45.2+) mice; Table 3, EAE incidence, treatment groups of FIG. 5G) [%] | Mean Time to EAE onset (C57BL/6 (CD45.2+) mice; Table 3, treatment groups of FIG. 5G) [days] | peak disease score in active EAE (C57BL/6 (CD45.2+) mice; treatment at day 13) | progression of disease activity in active EAE (C57BL/6 (CD45.2+) mice; treatment on day 10 or day 13) | cytotoxicity relative to the parent nemorubicin [1]
CCCCCCCCc1ccc(CCC(N)(CO)CO)cc1 [FTY-720, reference compound] | 100 | 12 | 2.3 | halted disease | 
COc1cccc2c1C(=O)c1c(O)c3c(c(O)c1C2=O)C[C@@](O)(C(=O)CO)C[C@@H]3O[C@H]1CC2[C@H](O[C@@H]3[C@@H](OC)OCCN23)[C@H](C)O1 (some centres unmarked) [PNU-159682] |  |  |  |  | greater than 3000 fold
